Data from patent US20190083477A1, “Cyclooxygenase Inhibitor and Calcium Channel Antagonist Compositions and Methods for Use in Urological Procedures” (Omeros Corporation, priority 2005, published 2019).
Values belong to the compound of their own block, whether it stands above or below them. Ends that are not written are not given here.

Tests used:
[1] = test system: rat bladder; assay: Acetic-acid overactive bladder model, intravesical delivery, cystometry (Example V); format: in vivo
Procedure: In this model, acute inflammation of the bladder is produced by using 0.2% acetic acid in saline as the bladder perfusion fluid and cystometry under anesthesia is performed after a recovery period from the surgical procedure.
The animals were anesthesized and bladder catheters were surgically implanted to allow irrigation of the test agents. The following cystometry parameters were monitored: intercontraction interval (ICI), trigger pressure (TP), micturition pressure (MP) and micturition volume (MV) using a Med Associates Cystometry Station and software program. […] Following the saline period, the rat bladder was infused with test agent in saline containing 0.2% acetic acid for 20 min followed by the collection of 7 representative ICI intervals for analysis.
Five to seven animals were normally tested in each group. Acidified saline served as the control. All infusion solutions were prepared fresh on the day of the experiment before use.

[2] = test system: rat bladder smooth muscle strips
[3] = test system: L-type channel; details: cited from earlier work
[4] = test system: bradykinin-induced PGE2 in rat bladder tissue strips; assay: PGE2 release from urinary bladder strips, enzyme immunoassay (Example I); format: cell-based; details: 10 min, 10 minutes of bradykinin challenge, read-out: BK-induced PGE2 IC50
[5] = test system: rat bladder smooth muscle strips; assay: tissue or blood; details: read-out: BK-induced Contraction IC50
[6] = test system: COX; details: read-out: IC50 in a non-selective COX assay; cited from earlier work
[7] = test system: rat bladder tissue strips; assay: tissue or blood; details: read-out: inhibition of contractile response to bradykinin
[8] = test system: bradykinin-stimulated PGE2 release from rat bladder tissue strips; assay: tissue or blood; details: read-out: inhibition of bradykinin-evoked PGE2 release
[9] = test system: rat urinary bladder; assay: In vivo rat cystometry model, 0.2% acetic acid infusion (Example I); details: 10 mg/kg intravenous
Procedure: The rats were anesthetized with urethane at 1.2 g/kg i.p. in 5 ml/kg. A polyethylene catheter (PE50) was implanted into the bladder for saline or acetic acid infusion through a 3-way stopcock. A pressure transducer was connected for measurements of intravesical pressure. Warm (37° C.) saline was infused into the bladder at a constant rate of […] (1 ml/hour) until cystometry became stable (no less than 60 minutes). Thereafter, 0.2% acetic acid was infused into the urinary bladder. Aspirin (10 mg/kg i.v.) and vehicle were administered intravenously via a PE-10 catheter in the femoral vein at 5 minutes after infusion of acetic acid was started and at the end of first micturition cycle. Dunnett's test was applied for comparison between the time before and after test substance or vehicle treatment. To ascertain differences between the test substance and the vehicle control group, an unpaired Student's t test was used. Differences are considered significant at […].

[10] = in irrigation buffer, 0.2% acetic acid, female rats

L-type channel, sequence (Q13936 whole entry): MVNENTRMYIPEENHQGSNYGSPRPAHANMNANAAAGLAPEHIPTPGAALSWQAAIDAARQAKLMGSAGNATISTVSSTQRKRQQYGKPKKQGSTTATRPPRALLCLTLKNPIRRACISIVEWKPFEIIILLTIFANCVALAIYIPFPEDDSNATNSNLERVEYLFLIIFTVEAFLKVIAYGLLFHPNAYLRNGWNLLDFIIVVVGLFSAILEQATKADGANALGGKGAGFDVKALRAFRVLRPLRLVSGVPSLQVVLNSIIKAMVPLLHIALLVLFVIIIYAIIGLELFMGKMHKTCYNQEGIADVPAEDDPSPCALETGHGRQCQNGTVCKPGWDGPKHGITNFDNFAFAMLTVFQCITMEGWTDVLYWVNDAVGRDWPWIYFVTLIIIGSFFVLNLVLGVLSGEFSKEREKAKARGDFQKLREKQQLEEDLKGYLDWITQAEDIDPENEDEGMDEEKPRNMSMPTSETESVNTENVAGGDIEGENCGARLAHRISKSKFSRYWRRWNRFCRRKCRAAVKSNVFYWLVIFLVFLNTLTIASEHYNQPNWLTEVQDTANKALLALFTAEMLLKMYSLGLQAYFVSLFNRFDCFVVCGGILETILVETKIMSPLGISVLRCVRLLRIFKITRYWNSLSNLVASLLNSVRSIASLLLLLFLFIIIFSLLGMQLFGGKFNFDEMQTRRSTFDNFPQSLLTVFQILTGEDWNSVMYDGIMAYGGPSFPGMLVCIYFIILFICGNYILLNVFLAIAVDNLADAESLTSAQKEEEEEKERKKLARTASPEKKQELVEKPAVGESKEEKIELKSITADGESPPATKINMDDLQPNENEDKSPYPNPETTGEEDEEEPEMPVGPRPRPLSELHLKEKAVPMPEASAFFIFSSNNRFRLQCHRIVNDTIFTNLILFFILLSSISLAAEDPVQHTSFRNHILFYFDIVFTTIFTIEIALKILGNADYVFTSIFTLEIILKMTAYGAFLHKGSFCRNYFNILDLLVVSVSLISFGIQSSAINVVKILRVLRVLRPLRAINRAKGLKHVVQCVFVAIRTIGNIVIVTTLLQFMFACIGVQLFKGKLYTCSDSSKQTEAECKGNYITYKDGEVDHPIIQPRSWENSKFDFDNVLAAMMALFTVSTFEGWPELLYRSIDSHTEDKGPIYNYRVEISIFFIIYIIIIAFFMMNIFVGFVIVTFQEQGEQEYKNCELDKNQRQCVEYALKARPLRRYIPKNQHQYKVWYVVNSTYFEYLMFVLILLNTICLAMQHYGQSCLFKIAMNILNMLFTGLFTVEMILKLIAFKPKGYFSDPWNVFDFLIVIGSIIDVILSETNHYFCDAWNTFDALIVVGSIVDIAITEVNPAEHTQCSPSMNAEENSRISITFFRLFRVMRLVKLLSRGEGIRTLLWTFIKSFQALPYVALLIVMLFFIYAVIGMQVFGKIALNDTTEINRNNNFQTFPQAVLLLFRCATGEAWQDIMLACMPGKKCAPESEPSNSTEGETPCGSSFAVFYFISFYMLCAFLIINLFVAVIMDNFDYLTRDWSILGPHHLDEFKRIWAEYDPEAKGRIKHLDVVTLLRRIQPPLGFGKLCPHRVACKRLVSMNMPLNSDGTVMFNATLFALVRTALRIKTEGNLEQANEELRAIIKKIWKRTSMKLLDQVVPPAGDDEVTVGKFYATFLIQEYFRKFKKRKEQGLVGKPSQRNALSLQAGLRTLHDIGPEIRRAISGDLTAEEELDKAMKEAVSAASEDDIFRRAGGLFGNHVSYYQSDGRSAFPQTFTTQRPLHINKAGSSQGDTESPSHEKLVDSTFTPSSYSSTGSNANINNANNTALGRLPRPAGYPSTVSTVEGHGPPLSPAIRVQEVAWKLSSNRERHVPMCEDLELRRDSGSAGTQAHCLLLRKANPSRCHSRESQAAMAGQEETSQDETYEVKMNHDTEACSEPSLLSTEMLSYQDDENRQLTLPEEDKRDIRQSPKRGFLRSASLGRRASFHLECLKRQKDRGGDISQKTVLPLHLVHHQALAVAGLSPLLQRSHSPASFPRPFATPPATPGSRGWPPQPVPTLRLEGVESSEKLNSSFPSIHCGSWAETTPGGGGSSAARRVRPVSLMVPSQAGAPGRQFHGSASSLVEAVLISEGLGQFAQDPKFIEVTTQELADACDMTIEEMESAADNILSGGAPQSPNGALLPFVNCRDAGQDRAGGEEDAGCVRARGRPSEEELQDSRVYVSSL

Compound: COC(=O)C1=C(C)NC(C)=C(C(=O)OC)C1c1ccccc1[N+](=O)[O-] [Nifedipine, 1,4-dihydro-2,6-dimethyl-4-(2-nitrophenyl)-3,5-pyridinedicarboxylic acid dimethyl ester]
concentration of maximal effects on the shortening of the ICI [1, 10]: 1 µM
ICI plateau at higher concentrations ([1]; nifedipine above 1 μM in irrigation buffer): approximately 75 % of baseline
type of antagonism upon bradykinin-induced contractile responses ([2]; single agent, 10 min incubation): noncompetitive
onset of action [3]: less than 10 minutes

IC50 [4]: 1.65 µM
IC50 [5]: 24.8 µM
Compound: CC(C(=O)O)c1ccc(-c2ccccc2)c(F)c1 (stereo not shown) [Flurbiprofen]

IC50 [4]: > 25 µM
IC50 [5]: > 25 µM
Compound: CS(=O)(=O)c1ccc(-c2cc(Br)sc2-c2ccc(F)cc2)cc1 [DUP-697, 5-bromo-2-(4-fluorophenyl)-3-(4-methylsulfonyl) thiophene]

IC50 [4]: > 25 µM
IC50 [5]: > 25 µM
Compound: CS(=O)(=O)c1ccc(-n2nc(C(F)(F)F)cc2-c2ccc(F)cc2)cc1 [SC-58125, 1-[(4-methysufonyl)phenyl]-3-tri-fluoromethyl-5-(4-fluorophenyl)pyrazole]

Compound: CC(C(=O)O)c1cccc(C(=O)c2ccccc2)c1 (stereo not drawn) [Ketoprofen, 3-benzoyl-α-methylbenzeneacetic acid]
concentration giving complete inhibition of the shortening of the ICI [1, 10]: approximately 3 μM
IC50 [6]: 4 to 8 nM
inhibition at 10 µM [7]: 67%
inhibition at 10 µM [8]: 81%

Compound: CC(=O)Oc1ccccc1C(=O)O [aspirin]
Threshold pressure [9]: not affected
bladder capacity [9]: parallel changes
inhibition of the acetic acid induced reduction in the intercontraction interval (ICI) [9]: gradual time-dependent inhibition
micturition pressure [9]: not affected

Compound: RPPGFSPFR [bradykinin]
EC50 ([2]; read-out: EC50, cumulative concentration-response curve (contraction), agonist on bladder strips of normal animals): 8.5 nM
